Laboratory results from patent US9718804B2, “GSK-3 inhibitors” (BRISTOL-MYERS SQUIBB COMPANY, priority 2013, dated 2017).
pIC50: −log10 of the molar value. Like-named read-outs stand apart in the source and are kept apart here.

Experiments:
[1] = molecular target: GSK3β (Homo sapiens, UniProt P49841); experiment: GSK3β kinase assay (Caliper LabChip, fluoresceinated peptide substrate); type: biochemical; details: for IC50: first value of the cell, 250 pM enzyme, 20 uM ATP, 20 hours at room temperature, read-out: GSK3β/α (nM): GSK3β IC50
GSK3β, sequence (P49841 whole entry, species assumed): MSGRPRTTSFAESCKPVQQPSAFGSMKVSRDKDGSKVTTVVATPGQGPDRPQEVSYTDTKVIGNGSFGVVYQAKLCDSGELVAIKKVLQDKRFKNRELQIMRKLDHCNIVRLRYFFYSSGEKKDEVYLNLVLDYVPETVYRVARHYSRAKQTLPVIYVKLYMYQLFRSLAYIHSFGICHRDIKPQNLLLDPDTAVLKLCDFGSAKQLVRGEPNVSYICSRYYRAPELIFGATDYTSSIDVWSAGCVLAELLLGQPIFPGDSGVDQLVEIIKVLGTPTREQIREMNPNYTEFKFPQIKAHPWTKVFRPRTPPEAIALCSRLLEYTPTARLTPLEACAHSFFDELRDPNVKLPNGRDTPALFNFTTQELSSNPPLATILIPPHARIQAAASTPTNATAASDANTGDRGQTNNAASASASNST
Summary of the method: (§1)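 Eleven-point compound titrations (10 mM DMSO stocks) incubated with kinase and fluorescent peptide for 20 h at room temperature before EDTA quench. Substrate-to-product conversion measured by microfluidic mobility shift; IC50 from non-linear fitting.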

[2] = molecular target: GSK3α (Homo sapiens, UniProt P49840); experiment: GSK3α kinase assay (Caliper LabChip, fluoresceinated peptide substrate); type: biochemical
GSK3α, sequence (P49840 whole entry, species assumed): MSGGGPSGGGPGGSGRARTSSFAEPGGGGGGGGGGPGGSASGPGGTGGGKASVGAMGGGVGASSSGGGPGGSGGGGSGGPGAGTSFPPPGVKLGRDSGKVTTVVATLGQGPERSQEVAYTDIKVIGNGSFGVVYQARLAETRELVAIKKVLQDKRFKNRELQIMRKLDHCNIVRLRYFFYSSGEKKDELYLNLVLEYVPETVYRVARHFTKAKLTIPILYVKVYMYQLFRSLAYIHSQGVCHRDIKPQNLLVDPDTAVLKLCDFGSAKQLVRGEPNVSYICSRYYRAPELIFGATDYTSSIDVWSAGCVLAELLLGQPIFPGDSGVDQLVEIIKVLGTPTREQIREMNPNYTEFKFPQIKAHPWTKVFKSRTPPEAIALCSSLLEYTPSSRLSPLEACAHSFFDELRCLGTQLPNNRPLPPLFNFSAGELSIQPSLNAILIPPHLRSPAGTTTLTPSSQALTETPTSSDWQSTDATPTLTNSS
Summary of the method: as §1

[3] = system: pTau; experiment: pTau assay (no method described); type: cell-based

SMILES | IC50 [1] [nM] | pIC50 [2] | pIC50 [3] | pIC50 [1]
O=C(Nc1cnccc1C1=CCOCC1)c1ccnc(Nc2ccc(C(F)(F)F)cn2)c1 [Example 32, N-(4-(3,6-Dihydro-2H-pyran-4-yl)pyridin-3-yl)-2-((5-(trifluoromethyl)pyridin-2-yl)amino)isonicotinamide] | 2.3 | 9.11 | 7.15 | 
O=C(Nc1cnccc1C1=CCCCC1)c1ccnc(Nc2ccc(C(F)(F)F)cn2)c1 [Example 36, N-(4-(Cyclohex-1-en-1-yl)pyridin-3-yl)-2-((5-(trifluoromethyl)pyridin-2-yl)amino)isonicotinamide] | 2.9 | 8.85 | 6.89 | 
O=C(Nc1cnc(Cl)cc1C1(O)CCOCC1)c1ccnc(Nc2ccc(C(F)(F)F)cn2)c1 [Example 74, N-(6-Chloro-4-(4-hydroxytetrahydro-2H-pyran-4-yl)pyridin-3-yl)-2-((5-(trifluoromethyl)pyridin-2-yl)amino)isonicotinamide] | 3.4 | 8.60 | 6.74 | 
CCCSc1ccncc1NC(=O)c1ccnc(Nc2ccc(C(F)(F)F)cn2)c1 [Example 170, N-(4-(Propylthio)pyridin-3-yl)-2-((5-(trifluoromethyl)pyridin-2-yl)amino)isonicotinamide] | 0.75 | 9.68 | 7.31 | 
O=C(Nc1cncc(-c2ccccc2F)c1)c1ccnc(Nc2ccc(F)cn2)c1 [Example 131, N-(5-(2-Fluorophenyl)pyridin-3-yl)-2-((5-fluoropyridin-2-yl)amino)isonicotinamide] |  | 8.52 | 6.19 | 8.21
N#Cc1ccc(-c2ccncc2NC(=O)c2ccnc(Nc3ccc(C(F)(F)F)cn3)c2)c(F)c1 [Example 52, N-(4-(2-Fluoro-4-cyano-phenyl)pyridin-3-yl)-2-((5-(trifluoromethyl)pyridin-2-yl)amino)isonicotinamide] | 3.6 | 8.82 | 7.46 | 
Cn1ncc(NC(=O)c2ccnc(Nc3ccc(C(F)(F)F)cn3)c2)c1C(C)(O)C1CC1 (stereo not drawn) [Example 209, N-(5-(1-Cyclopropyl-1-hydroxyethyl)-1-methyl-1H-pyrazol-4-yl)-2-((5-(trifluoromethyl)pyridin-2-yl)amino)isonicotinamide] | 0.3 | 9.68 | 7.68 | 
CC(C)(C)[S+]([O-])c1ccncc1NC(=O)c1ccnc(Nc2ccc(C(F)(F)F)cn2)c1 (stereo not drawn) [Example 178, N-(4-(tert-Butylsulfinyl)pyridin-3-yl)-2-((5-(trifluoromethyl)pyridin-2-yl)amino)isonicotinamide] | 0.12 | 8.92 | 7.89 | 
CC(C)C(O)c1cc(Cl)ncc1NC(=O)c1ccnc(Nc2ccc(C(F)(F)F)cn2)c1 (stereo not drawn) [Example 103, N-(6-Chloro-4-(1-hydroxy-2-methylpropyl)pyridin-3-yl)-2-((5-(trifluoromethyl)pyridin-2-yl)amino)isonicotinamide] | 6.7 | 8.41 | 6.27 | 
CC(C)C(O)(c1cc(Cl)ncc1NC(=O)c1ccnc(Nc2ccc(C(F)(F)F)cn2)c1)C1CC1 (stereo not drawn) [Example 102, N-(6-Chloro-4-(1-cyclopropyl-1-hydroxy-2-methylpropyl)pyridin-3-yl)-2-((5-(trifluoromethyl)pyridin-2-yl)amino)isonicotinamide] | 43 | 7.52 | 5.92 | 
CC1CC1COc1cncc(NC(=O)c2ccnc(Nc3cccc(C(F)(F)F)n3)c2)c1 (stereo not drawn) [Example 126, N-(5-((2-Methylcyclopropyl)methoxy)pyridin-3-yl)-2-((6-(trifluoromethyl)pyridin-2-yl)amino)isonicotinamide] | 9.7 | 8.32 | 5.49 | 
O=C(Nc1cn[nH]c1-c1ccccc1)c1ccnc(Nc2ccc(C(F)(F)F)cn2)c1 [Example 205, N-(5-Phenyl-1H-pyrazol-4-yl)-2-((5-(trifluoromethyl)pyridin-2-yl)amino)isonicotinamide] | 28 | 7.70 | 5.00 | 
O=C(Nc1cncc(-c2ccccc2F)c1)c1ccnc(Nc2ccc3cnccc3n2)c1 [Example 153, 2-((1,6-Naphthyridin-2-yl)amino)-N-(5-(2-fluorophenyl)pyridin-3-yl)isonicotinamide] | 1.5 | 9.35 | 6.70 | 
O=C(Nc1cnccc1-c1ccc(F)cc1)c1ccnc(Nc2cccc(Cl)n2)c1 [Example 48, 2-((6-Chloropyridin-2-yl)amino)-N-(4-(4-fluorophenyl)pyridin-3-yl)isonicotinamide] | 2.9 | 8.72 | 6.57 | 
O=C(Nc1cnccc1OCC(F)(F)F)c1ccnc(Nc2ccc(C(F)(F)F)cn2)c1 [Example 18, N-(4-(Trifluoroethoxy)pyridin-3-yl)-2-((5-(trifluoromethyl)pyridin-2-yl)amino)isonicotinamide] | 0.71 | 9.38 | 7.89 | 
O=C(Nc1cncnc1-c1ccccc1)c1ccnc(Nc2ccc(C(F)(F)F)cn2)c1 [Example 193, N-(4-Phenylpyrimidin-5-yl)-2-((5-(trifluoromethyl)pyridin-2-yl)amino)isonicotinamide] | 3.6 | 8.72 | 6.78 | 
CC(C)(C)C(O)c1cc(Cl)ncc1NC(=O)c1ccnc(Nc2ccc(C(F)(F)F)cn2)c1 (stereo not drawn) [Example 104, N-(6-Chloro-4-(1-hydroxy-2,2-dimethylpropyl)pyridin-3-yl)-2-((5-(trifluoromethyl)pyridin-2-yl)amino)isonicotinamide] | 18 | 8.00 | 6.55 | 
O=C(Nc1cnccc1SCC(F)(F)F)c1ccnc(Nc2ccc(C(F)(F)F)cn2)c1 [Example 171, N-(4-((2,2,2-Trifluoroethyl)thio)pyridin-3-yl)-2-((5-(trifluoromethyl)pyridin-2-yl)amino)isonicotinamide] | 1.2 | 9.21 | 7.33 | 
N#Cc1cnn(-c2cncc(NC(=O)c3ccnc(Nc4cccc(C(F)(F)F)n4)c3)c2)c1 [Example 122, N-(5-(4-Cyano-1H-pyrazol-1-yl)pyridin-3-yl)-2-((6-(trifluoromethyl)pyridin-2-yl)amino)isonicotinamide] | 6.9 | 8.66 | 5.70 | 
O=C(Nc1cnccc1C1OCCO1)c1ccnc(Nc2ccc(C(F)(F)F)cn2)c1 [Example 40, N-(4-(1,3-Dioxolan-2-yl)pyridin-3-yl)-2-((5-(trifluoromethyl)pyridin-2-yl)amino)isonicotinamide] | 23 | 7.34 | 5.48 | 
O=C(Nc1cnccc1-c1ccc(Cl)cc1)c1ccnc(Nc2ccc(C(F)(F)F)cn2)c1 [Example 51, N-(4-(4-Cholorophenyl)pyridin-3-yl)-2-((5-(trifluoromethyl)pyridin-2-yl)amino)isonicotinamide] | 9.9 | 8.16 | 6.58 | 
O=C(Nc1cnccc1C1(O)CCCCC1)c1ccnc(Nc2ccc(C(F)(F)F)cn2)c1 [Example 38, N-(4-(1-Hydroxycyclohexyl)pyridin-3-yl)-2-((5-(trifluoromethyl)pyridin-2-yl)amino)isonicotinamide] | 1.1 | 9.15 | 8.06 | 
